Earlier results as cited in paper PMC2119397 (The Journal of Experimental Medicine, 1992).
Like-named read-outs stand apart in the source and are kept apart here.

Tested on: DR1

Sequence	DR1 binding (in words) (ref Sinigaglia, F., unpublished observation)	DR1 binding (in words)
NALYKMNAVAKAA [NNX 83-91]	DR1 binding	
PKYVKQNTLKLAT [HA 307-319]		DR1 binding
TT 830-843: DR1-binding synthetic peptide of tetanus toxoid (QYIKANSKFIGITE; UniProt P04958 830-843, looked up, fragment)		DRl-binding
